Source: patent US20240417387A1, “SULFONYLPIPERAZINYL COMPOUNDS FOR TREATMENT OF BACTERIAL INFECTIONS” (Hoffmann-La Roche Inc., priority 2021, published 2024)
In brackets after ≈: the same amount, converted by molar mass. Read-outs that look alike come from different tables or passages of the source.

Legend:
[1] = tested on: Escherichia coli ATCC 25922; test: Minimal Inhibitory Concentration (MIC) broth dilution assay, E. coli ATCC 25922; format: cell-based; details: for MIC: Escherichia coli
Protocol: (§1) The antibacterial activity of molecules was evaluated against the commonly used quality control strain Escherichia coli BW 25113, Escherichia coli ATCC 25922 and the rifampin-resistant mutant strain Klebsiella pneumonia ATCC 43816. Escherichia co/i BW 25113 was obtained from the Coli Genetic Stock Center (CGSC) (strain 7636). Both Escherichia coli ATCC 25922 and Klebsiella pneumonia ATCC 43816 were originally derived from human clinical samples and are available from ATCC (American Type Culture Collection). The in vitro potency of compounds to inhibit Escherichia coli (BW 25113, ATCC 25922) and Klebsiella pneumonia (ATCC 43816) growth was assessed by the MIC (Minimal Inhibitory Concentration) broth dilution method. Specifically compound dilutions were prepared from 10 mM DMSO stock solutions as follows: i) serial 2-fold dilution in 20 μL DMSO were prepared in a master plate (Greiner, Cat No: 651201), ii) 180 μL sterile distilled water was added to each aliquot and iii) 10 μL diluted compounds were transferred into a new assay plate (Costar, 3599).
(§2) Vials of each test microorganisms were maintained frozen in the vapor phase of a liquid nitrogen freezer. Single-use frozen vials of the three strains Escherichia coli BW 25113, Escherichia coli ATCC 25922 (KWTKSTTK, 0335K) and Klebsiella pneumonia ATCC 43816, with predetermined CFU/mL, were taken out from the freezer, thawed at room temperature, and diluted in Cation-Adjusted Mueller Hinton Broth (CAMVIHB) to achieve a final inoculum of 5×10^5 CFU/mL. 90 μL bacteria containing broth was dispensed to the assay plate containing the pre-dispensed compound dilutions and mixed by pipetting 5 times.
(§3) Then the assay plates were incubated for 20 hours at 35° C. in ambient air. Following incubation, the MIC […], the lowest concentration of drug that inhibits visible growth of the microorganism was read with the help of a magnification mirror and recorded.

[2] = target: Escherichia coli UDP-2,3-diacylglucosamine hydrolase (LpxH) (Escherichia coli (strain K12), UniProt P43341); test: Enzymatic IC50 assay of Escherichia coli LpxH (UMP/CMP-Glo luminescence); format: biochemical; details: Enzymatic IC50 against Escherichia coli LpxH; read-out: IC50 (converted)
Chain of Escherichia coli UDP-2,3-diacylglucosamine hydrolase (LpxH) (P43341 whole entry): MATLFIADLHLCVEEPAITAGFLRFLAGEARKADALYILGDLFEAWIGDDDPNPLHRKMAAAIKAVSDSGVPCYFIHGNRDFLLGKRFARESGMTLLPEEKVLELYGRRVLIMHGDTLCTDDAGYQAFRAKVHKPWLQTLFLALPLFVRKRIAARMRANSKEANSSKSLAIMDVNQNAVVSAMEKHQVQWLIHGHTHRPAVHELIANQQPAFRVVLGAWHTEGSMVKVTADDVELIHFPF
Protocol: The inhibitory potency of compounds of Escherichia coli UDP-2,3-diacylglucosamine hydrolase (LpxH) was determined in an enzymatic assay. UDP-2,3-diacylglucosamine (UDP-DAG) was purified from the Caulobacter crescentus LpxI D225A mutant protein that contained a tightly bound UDP-DAG molecule. The enzyme was diluted using assay buffer containing 50 mM NaCl, 20 mM Tris-HCl pH7.5, 2.5 mM MnCl2, 0.01% Triton X-100.1 mg/mL BSA, and the final concentration is 2 nM. The compounds were diluted by Agilent liquid handler Bravo, the compound's serial dilution dose ranges from 100 μM to 1.7 nM. Then the enzyme and compounds mixture were incubated at room temperature for 10 mins. The enzymatic assay was started by adding UDP-DAG (FAC is 5 μM) and incubated for 20 mins at room temperature. The plate was then heated to 95° C. for 15 mins on a water batch to stop the reaction. The hydrolysis of UDP-DAG by LpxH yielded 2,3-diacylglucosamine 1-phosphate (lipid X) and UMP, which was converted to ATP and quantified by the luciferase reaction using the UMP/CMP-Glo™ Glycosyltransferase Assay kit from Promega. The compound's inhibitory effect of LpxH is determined by measuring the light change using a luminometer (Envision).

[3] = tested on: Klebsiella pneumonia ATCC 43816; test: Minimal Inhibitory Concentration (MIC) broth dilution assay, K. pneumonia ATCC 43816; format: cell-based; details: CAMHB; for MIC: Klebsiella pneumoniae, ATCC43816, 20 hours at 35° C., read-out: MIC K. p ATCC 43816
Protocol: as §1, §2, §3

[4] = tested on: Escherichia coli BW 25113; test: Minimal Inhibitory Concentration (MIC) broth dilution assay, E. coli BW 25113; format: cell-based; details: CAMHB; for MIC: Escherichia coli, BW25113, 20 hours at 35° C., read-out: MIC E. coli K-12 BW 25113
Protocol: as §1, §2, §3

[5] = Human microsome stability assay; format: in vitro ADME
Protocol: The human microsomal stability assay is used for early assessment of metabolic stability of a test compound in human liver microsomes.
Human liver microsomes (Cat.NO.: 452117, Corning, USA) were preincubated with test compound for 10 minutes at 37° C. in 100 mM potassium phosphate buffer, pH 7.4. The reactions were initiated by adding NADPH regenerating system. The final incubation mixtures contained 1 µM test compound, 0.5 mg/mL liver microsomal protein, 1 mM MgCl2, 1 mM NADP, 1 unit/mL isocitric dehydrogenase and 6 mM isocitric acid in 100 mM potassium phosphate buffer, pH 7.4. After incubation times of 0, 3, 6, 9, 15 and 30 minutes at 37° C., 300 μL of cold acetonitrile (including internal standard) was added to 100 μL incubation mixture to terminate the reaction. Following precipitation and centrifugation, the amount of compound remaining in the samples were determined by LC-MS/MS. Controls of no NADPH regenerating system at zero and 30 minutes were also prepared and analyzed. […] (Human microsome clearance: <7 mL/min/kg: low; 7-16.2 mL/min/kg: medium; >16.2 mL/min/kg: high)

[6] = ATCC25922, 20 h, read-out: MIC E. coli ATCC 25922
[7] = ATCC25922, read-out: MIC E. coli ATCC 25922, broth dilution, 20 hours at 35° C., CAMHB, read-out: MIC E. coli K-12 ATCC 25922
[8] = human liver microsomes 0.5 mg/mL, 37° C., pH 7.4, NADPH regenerating system

Row | Molecule | IC50 [2] | MIC [3] | MIC [4] | other results
1 | COC(=O)[C@H]1CC[C@H](C(F)(F)c2cc(Cl)nc(N3CCN(S(=O)(=O)c4ccc(N5CC(N)CC5=O)cc4)CC3)c2)CC1 (stereo partly drawn) [Example 001, Trans-methyl 4-[[2-[4-[4-(4-amino-2-oxo-pyrrolidin-1-yl)phenyl]sulfonylpiperazin-1-yl]-6-chloro-4-pyridyl]-difluoro-methyl]cyclohexanecarboxylate] | 3.19 nM | 0.98 µg/mL (≈ 1.57 µM) | 0.49 µg/mL (≈ 0.783 µM) | MIC [1, 6]: 0.98 µg/mL (≈ 1.57 µM)
2 | N[C@@H]1CC(=O)N(c2ccc(S(=O)(=O)N3CCN(c4cc(C(F)(F)c5cnc(C(=O)NCCN6CCOCC6)cn5)cc(Cl)n4)CC3)cc2)C1 [Example 025, 5-[[2-chloro-6-[4-[4-[(4R)-4-amino-2-oxo-pyrrolidin-1-yl]phenyl]sulfonylpiperazin-1-yl]-4-pyridyl]-difluoro-methyl]-N-(2-morpholinoethyl)pyrazine-2-carboxamide] | < 2.78 nM |  |  | 
3 | NCCNCCNC(=O)c1ccc(C(F)(F)c2cc(Cl)nc(N3CCN(S(=O)(=O)c4ccc(N5C[C@H](N)CC5=O)cc4)CC3)c2)nc1 [Example 028, N-[2-(2-aminoethylamino)ethyl]-6-[[2-chloro-6-[4-[4-[(4R)-4-amino-2-oxo-pyrrolidin-1-yl]phenyl]sulfonylpiperazin-1-yl]-4-pyridyl]-difluoro-methyl]pyridine-3-carboxamide] | 20.2 nM | 1.6 µg/mL (≈ 2.31 µM) | 1.6 µg/mL (≈ 2.31 µM) | MIC [1, 7]: 1.6 µg/mL (≈ 2.31 µM)
4 | N[C@@H]1CC(=O)N(c2ccc(S(=O)(=O)N3CCN(c4cc(C(F)(F)[C@H]5CC[C@@H](C(=O)NCCCO)CC5)cc(Cl)n4)CC3)cc2)C1 [Example 032] | < 2.99 nM | 2.2 µg/mL (≈ 3.29 µM) | 3.3 µg/mL (≈ 4.93 µM) | MIC [1, 6]: 2.2 µg/mL (≈ 3.29 µM)
5 | NCCCNC(=O)C1CCC(C(F)(F)c2cc(Cl)nc(N3CCN(S(=O)(=O)c4ccc(N5C[C@H](N)CC5=O)cc4)CC3)c2)C1 (stereo partly drawn) [Example 035, N-(3-aminopropyl)-3-[[2-chloro-6-[4-[4-[(4R)-4-amino-2-oxo-pyrrolidin-1-yl]phenyl]sulfonylpiperazin-1-yl]-4-pyridyl]-difluoro-methyl]cyclopentanecarboxamide] | 45.9 nM |  |  | Clearance of Human microsome [5, 8]: 8.90 mL/min/kg
6 | NCCCNC(=O)C12CC(C(F)(F)c3cc(Cl)nc(N4CCN(S(=O)(=O)c5ccc(N6C[C@H](N)CC6=O)cc5)CC4)c3)(C1)C2 [Example 040] | 6.13 nM |  |  | Clearance of Human microsome [5, 8]: 6.15 mL/min/kg
7 | NCC(=O)NNC(=O)[C@H]1CC[C@H](C(F)(F)c2cc(Cl)nc(N3CCN(S(=O)(=O)c4ccc(N5C[C@H](N)CC5=O)cc4)CC3)c2)CC1 [Example 050, Trans-N′-(2-aminoacetyl)-4-[[2-chloro-6-[4-[4-[(4R)-4-amino-2-oxo-pyrrolidin-1-yl]phenyl]sulfonylpiperazin-1-yl]-4-pyridyl]-difluoro-methyl]cyclohexanecarbohydrazide] | 2.93 nM | 1.1 µg/mL (≈ 1.61 µM) | 2.1 µg/mL (≈ 3.07 µM) | MIC [1, 7]: 1.1 µg/mL (≈ 1.61 µM)
8 | Cc1cc(C(F)(F)[C@H]2CC[C@H](C(=O)NCCCN)CC2)nc(N2CCN(S(=O)(=O)c3ccc(N4C[C@H](N)CC4=O)cc3)CC2)n1 [Example 054, Trans-N-(3-aminopropyl)-4-[difluoro-[6-methyl-2-[4-[4-[(4R)-4-amino-2-oxo-pyrrolidin-1-yl]phenyl]sulfonylpiperazin-1-yl]pyrimidin-4-yl]methyl]cyclohexanecarboxamide] | 37 nM |  |  | 
9 | NC(=O)CNC(=O)[C@H]1CC[C@@H](C(F)(F)c2cc(Cl)nc(N3CCN(S(=O)(=O)c4ccc(N5C[C@H](N)CC5=O)cc4)CC3)c2)CC1 [Example 063, Cis-N-(2-amino-2-oxo-ethyl)-4-[[2-chloro-6-[4-[4-[(4R)-4-amino-2-oxo-pyrrolidin-1-yl]phenyl]sulfonylpiperazin-1-y1]-4-pyridyl]-difluoro-methyl]cyclohexanecarboxamide] | 5.99 nM |  |  | 
10 | NCC(N)CNC(=O)[C@H]1CC[C@H](C(F)(F)c2cc(Cl)nc(N3CCN(S(=O)(=O)c4ccc(N5C[C@H](N)CC5=O)cc4)CC3)c2)CC1 (stereo partly drawn) [Example 077, Trans-4-[[2-chloro-6-[4-[4-[(4R)-4-amino-2-oxo-pyrrolidin-1-yl]phenyl]sulfonylpiperazin-1-yl]-4-pyridyl]-difluoro-methyl]-N-(2,3-diaminopropyl)cyclohexanecarboxamide] | 2.93 nM | 2.2 µg/mL (≈ 3.22 µM) | 2.2 µg/mL (≈ 3.22 µM) | MIC [1, 7]: 2.2 µg/mL (≈ 3.22 µM)
11 | CNC(=O)c1ccc(C(F)(F)c2cc(Cl)nc(N3CCN(S(=O)(=O)c4ccc(N5CC(NCCCN)CC5=O)cc4)CC3)c2)cc1 (stereo not shown) [Example 078, 4-[[2-[4-[4-[4-(3-Aminopropylamino)-2-oxo-pyrrolidin-1-yl]phenyl]sulfonylpiperazin-1-yl]-6-chloro-4-pyridyl]-difluoro-methyl]-N-methyl-benzamide] | 5.92 nM | 2.1 µg/mL (≈ 3.11 µM) | 1.4 µg/mL (≈ 2.07 µM) | MIC [1, 7]: 2.8 µg/mL (≈ 4.14 µM)
12 | N[C@@H]1CC(=O)N(c2ccc(S(=O)(=O)N3CCN(c4cc(C(F)(F)[C@H]5CC[C@H](C(=O)N[C@H]6CCC(N7C[C@H](N)C[C@H](N)C7)C6)CC5)cc(Cl)n4)CC3)cc2)C1 (stereo partly drawn) [Example 081, Trans-4-[[2-chloro-6-[4-[4-[(4R)-4-amino-2-oxo-pyrrolidin-1-yl]phenyl]sulfonylpiperazin-1-yl]-4-pyridyl]-difluoro-methyl]-N-[(1S)-3-[cis-3,5-diamino-1-piperidyl]cyclopentyl]cyclohexanecarboxamide] |  | 0.65 µg/mL (≈ 0.82 µM) | 0.65 µg/mL (≈ 0.82 µM) | MIC [1, 6]: 0.65 µg/mL (≈ 0.82 µM); Clearance of Human microsome [5, 8]: 6.71 mL/min/kg
13 | C[N+](C)(CCCN)CCCNC(=O)[C@H]1CC[C@H](C(F)(F)c2cc(Cl)nc(N3CCN(S(=O)(=O)c4ccc(N5C[C@H](N)CC5=O)cc4)CC3)c2)CC1 [Example 084, Trans-3-[[4-[[2-[4-[4-[(4R)-4-amino-2-oxo-pyrrolidin-1-yl]phenyl]sulfonylpiperazin-1-yl]-6-chloro-4-pyridyl]-difluoro-methyl]cyclohexanecarbonyl]amino]propyl-(3-aminopropyl)-dimethyl-ammonium] |  | 0.81 µg/mL | 0.48 µg/mL | MIC [1, 6]: 0.48 µg/mL; Clearance of Human microsome [5, 8]: 9.7 mL/min/kg
14 | Trans-N-[(1R,3S)-3-aminocyclopentyl]-4-[2-[4-[4-[(4R)-4-amino-2-oxo-pyrrolidin-1-yl]phenyl]sulfonylpiperazin-1-yl]-6-chloro-4-pyridyl]-difluoro-methyl]cyclohexanecarboxamide [Example 066] |  |  |  | MIC E. coli K-12 ATCC 25922 ([1]; broth dilution, 20 hours at 35° C., CAMHB): 0.63 µg/mL; MIC K. p ATCC 43816 ([3]; 20 hours at 35° C.): 0.59 µg/mL; MIC E. coli K-12 BW 25113 ([4]; 20 hours at 35° C.): 1.3 µg/mL; Clearance of Human microsome ([5]; human, microsomes, pH 7.4): 6.15 mL/min/kg
